Results from PubChem BioAssay AID1963423 (Molecular Pharmacology Branch, DTP, NCI, 2024).

System: 439559-082-T-J2-PDC complex spheroid growth
Test: Anticancer human tumor 439559-082-T-J2-PDC patient-derived colon adenocarcinoma cell line growth inhibition [Asc]
Details: for IC50: curve of first compound; for viability, T/C: stronger effect = lower value; active = viability on the fitted dose curve at most 10% of control; inactive = the rest
Procedure, shortened: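 Tumor cells were grown as multicellular spheroids with stromal HUVEC and mesenchymal stem cells and treated singly or in combination. Concentrations fell in half-log steps from the clinical Cmax, or from 10 microM where none was known.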

[1] = second compound 0.1 µM, first compound 0.0316 µM
[2] = second compound 0.1 µM, first compound 0.1 µM
[3] = second compound 0.1 µM, first compound 0.316 µM
[4] = second compound 0.1 µM, first compound 1 µM
[5] = second compound 0.1 µM, first compound 3.16 µM
[6] = second compound 0.1 µM, first compound 10 µM
[7] = second compound 0.316 µM, first compound 0.0316 µM
[8] = second compound 0.316 µM, first compound 0.1 µM
[9] = second compound 0.316 µM, first compound 0.316 µM
[10] = second compound 0.316 µM, first compound 1 µM
[11] = second compound 0.316 µM, first compound 3.16 µM
[12] = second compound 0.316 µM, first compound 10 µM
[13] = second compound 1 µM, first compound 0.0316 µM
[14] = second compound 1 µM, first compound 0.1 µM
[15] = second compound 1 µM, first compound 0.316 µM
[16] = second compound 1 µM, first compound 1 µM
[17] = second compound 1 µM, first compound 3.16 µM
[18] = second compound 1 µM, first compound 10 µM
[19] = second compound 0.00316 µM, first compound 0.0316 µM
[20] = second compound 0.00316 µM, first compound 0.1 µM
[21] = second compound 0.00316 µM, first compound 0.316 µM
[22] = second compound 0.00316 µM, first compound 1 µM
[23] = second compound 0.00316 µM, first compound 3.16 µM
[24] = second compound 0.00316 µM, first compound 10 µM
[25] = second compound 0.01 µM, first compound 0.0316 µM
[26] = second compound 0.01 µM, first compound 0.1 µM
[27] = second compound 0.01 µM, first compound 0.316 µM
[28] = second compound 0.01 µM, first compound 1 µM
[29] = second compound 0.01 µM, first compound 3.16 µM
[30] = second compound 0.01 µM, first compound 10 µM
[31] = second compound 0.0316 µM, first compound 0.0316 µM
[32] = second compound 0.0316 µM, first compound 0.1 µM
[33] = second compound 0.0316 µM, first compound 0.316 µM
[34] = second compound 0.0316 µM, first compound 1 µM
[35] = second compound 0.0316 µM, first compound 3.16 µM
[36] = second compound 0.0316 µM, first compound 10 µM
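Note: spheroids exposed to agents for 7 days starting day 3 after seeding.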
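Throughout, for viability, T/C: percent of DMSO vehicle control viability with 100% = vehicle.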

C#Cc1c(F)ccc2cc(O)cc(-c3ncc4c(N5CC6CCC(C5)N6)nc(OCC56CCCN5CC(F)C6)nc4c3F)c12 (stereo unspecified) + Cc1c(S(C)(=O)=O)c(-c2cc(F)cc(N3CCN(c4ccc(NS(=O)(=O)c5ccc(NC(CCN6CCC(C(=O)OCCCP(=O)(O)O)CC6)CSc6ccccc6)c(S(=O)(=O)C(F)(F)F)c5)cc4)CC3)c2)c(-c2ccc(Cl)cc2)n1C(C)C
0.833 µM: IC50 (second compound 0.1 µM)
0.188 µM: IC50 (second compound 3.16 µM)
0.679 µM: IC50 (second compound 1 µM)
0.0555 µM: IC50 (second compound 10 µM)
inactive: viability, T/C [1] 78.3% | viability, T/C [2] 77.3% | viability, T/C [3] 61.7% | viability, T/C [4] 47% | viability, T/C [5] 46.3% | viability, T/C [6] 37.1% | viability, T/C [7] 79% | viability, T/C [8] 75.1% | viability, T/C [9] 57.5% | viability, T/C [10] 43% | viability, T/C [11] 40.9% | viability, T/C [12] 31.6% | viability, T/C [13] 72.6% | viability, T/C [14] 66.4% | viability, T/C [15] 55.1% | viability, T/C [16] 44.1% | viability, T/C [17] 41.9% | viability, T/C [18] 27.4% | viability, T/C (second compound 3.16 µM, first compound 0.0316 µM) 67.2% | viability, T/C (second compound 3.16 µM, first compound 0.1 µM) 55% | viability, T/C (second compound 3.16 µM, first compound 0.316 µM) 45.6% | viability, T/C (second compound 3.16 µM, first compound 1 µM) 34.6% | viability, T/C (second compound 3.16 µM, first compound 3.16 µM) 32.7% | viability, T/C (second compound 3.16 µM, first compound 10 µM) 22.5% | viability, T/C (second compound 10 µM, first compound 0.0316 µM) 56.7% | viability, T/C (second compound 10 µM, first compound 0.1 µM) 41.2% | viability, T/C (second compound 10 µM, first compound 0.316 µM) 36.5% | viability, T/C (second compound 10 µM, first compound 1 µM) 24.4% | viability, T/C (second compound 10 µM, first compound 3.16 µM) 19.3% | viability, T/C (second compound 10 µM, first compound 10 µM) 14.9%
0.62 µM: IC50 (second compound 0.316 µM)

C=CC(=O)N1CCN(c2nc(=O)n(-c3c(C)ccnc3C(C)C)c3nc(-c4c(O)cccc4F)c(F)cc23)C(C)C1 (stereo unspecified) + CNC(C)C(=O)NC1CN(S(=O)(=O)c2cccc(S(=O)(=O)N3CCC4CCC(C(=O)NC(c5ccccc5)c5ccccc5)N4C(=O)C(NC(=O)C(C)NC)C3)c2)CCC2CCC(C(=O)NC(c3ccccc3)c3ccccc3)N2C1=O
inactive: viability, T/C [19] 103% | viability, T/C [20] 94.8% | viability, T/C [21] 97.2% | viability, T/C [22] 101% | viability, T/C [23] 105% | viability, T/C [24] 102% | viability, T/C [25] 110% | viability, T/C [26] 94.9% | viability, T/C [27] 95.5% | viability, T/C [28] 107% | viability, T/C [29] 111% | viability, T/C [30] 103% | viability, T/C [31] 93.6% | viability, T/C [32] 95.3% | viability, T/C [33] 89.9% | viability, T/C [34] 99% | viability, T/C [35] 95% | viability, T/C [36] 99.6% | viability, T/C [1] 111% | viability, T/C [2] 105% | viability, T/C [3] 100% | viability, T/C [4] 93.8% | viability, T/C [5] 104% | viability, T/C [6] 91.3% | viability, T/C [7] 105% | viability, T/C [8] 109% | viability, T/C [9] 99.9% | viability, T/C [10] 105% | viability, T/C [11] 94% | viability, T/C [12] 103% | viability, T/C [13] 81.9% | viability, T/C [14] 78% | viability, T/C [15] 85.4% | viability, T/C [16] 76.3% | viability, T/C [17] 101% | viability, T/C [18] 93.6%
> 10 µM: IC50 (second compound 0.00316 µM) | IC50 (second compound 0.01 µM) | IC50 (second compound 0.0316 µM) | IC50 (second compound 0.1 µM) | IC50 (second compound 0.316 µM) | IC50 (second compound 1 µM)

Cc1nc(N2CCC3(CC2)COC(C)C3N)c(CO)nc1Sc1ccnc(N)c1Cl (stereo unspecified) + CNC(C)C(=O)NC1CN(S(=O)(=O)c2cccc(S(=O)(=O)N3CCC4CCC(C(=O)NC(c5ccccc5)c5ccccc5)N4C(=O)C(NC(=O)C(C)NC)C3)c2)CCC2CCC(C(=O)NC(c3ccccc3)c3ccccc3)N2C1=O
inactive: viability, T/C (second compound 0.00316 µM, first compound 0.00949 µM) 98.2% | viability, T/C (second compound 0.00316 µM, first compound 0.03 µM) 91.5% | viability, T/C (second compound 0.00316 µM, first compound 0.0949 µM) 89.7% | viability, T/C (second compound 0.00316 µM, first compound 0.3 µM) 94% | viability, T/C (second compound 0.00316 µM, first compound 0.949 µM) 95.4% | viability, T/C (second compound 0.00316 µM, first compound 3 µM) 71.5% | viability, T/C (second compound 0.01 µM, first compound 0.00949 µM) 98.4% | viability, T/C (second compound 0.01 µM, first compound 0.03 µM) 104% | viability, T/C (second compound 0.01 µM, first compound 0.0949 µM) 95.3% | viability, T/C (second compound 0.01 µM, first compound 0.3 µM) 83% | viability, T/C (second compound 0.01 µM, first compound 0.949 µM) 87.3% | viability, T/C (second compound 0.01 µM, first compound 3 µM) 73.3% | viability, T/C (second compound 0.0316 µM, first compound 0.00949 µM) 104% | viability, T/C (second compound 0.0316 µM, first compound 0.03 µM) 98.8% | viability, T/C (second compound 0.0316 µM, first compound 0.0949 µM) 89.4% | viability, T/C (second compound 0.0316 µM, first compound 0.3 µM) 97.2% | viability, T/C (second compound 0.0316 µM, first compound 0.949 µM) 75.8% | viability, T/C (second compound 0.0316 µM, first compound 3 µM) 69.5% | viability, T/C (second compound 0.1 µM, first compound 0.00949 µM) 93.7% | viability, T/C (second compound 0.1 µM, first compound 0.03 µM) 96.7% | viability, T/C (second compound 0.1 µM, first compound 0.0949 µM) 95.5% | viability, T/C (second compound 0.1 µM, first compound 0.3 µM) 84.2% | viability, T/C (second compound 0.1 µM, first compound 0.949 µM) 81.3% | viability, T/C (second compound 0.1 µM, first compound 3 µM) 64.8% | viability, T/C (second compound 0.316 µM, first compound 0.00949 µM) 94.4% | viability, T/C (second compound 0.316 µM, first compound 0.03 µM) 88.1% | viability, T/C (second compound 0.316 µM, first compound 0.0949 µM) 79% | viability, T/C (second compound 0.316 µM, first compound 0.3 µM) 72.1% | viability, T/C (second compound 0.316 µM, first compound 0.949 µM) 67% | viability, T/C (second compound 0.316 µM, first compound 3 µM) 59.9% | viability, T/C (second compound 1 µM, first compound 0.00949 µM) 72.9% | viability, T/C (second compound 1 µM, first compound 0.03 µM) 76.8% | viability, T/C (second compound 1 µM, first compound 0.0949 µM) 69.3% | viability, T/C (second compound 1 µM, first compound 0.3 µM) 62.9% | viability, T/C (second compound 1 µM, first compound 0.949 µM) 66.6% | viability, T/C (second compound 1 µM, first compound 3 µM) 45%
> 3 µM: IC50 (second compound 0.00316 µM) | IC50 (second compound 0.01 µM) | IC50 (second compound 0.0316 µM) | IC50 (second compound 0.1 µM) | IC50 (second compound 0.316 µM)
2.27 µM: IC50 (second compound 1 µM)

O=C(c1cc(Cc2n[nH]c(=O)c3ccccc23)ccc1F)N1CCN(C(=O)C2CC2)CC1 + CNC(C)C(=O)NC1CN(S(=O)(=O)c2cccc(S(=O)(=O)N3CCC4CCC(C(=O)NC(c5ccccc5)c5ccccc5)N4C(=O)C(NC(=O)C(C)NC)C3)c2)CCC2CCC(C(=O)NC(c3ccccc3)c3ccccc3)N2C1=O
inactive: viability, T/C [19] 54.7% | viability, T/C [20] 47.2% | viability, T/C [21] 49.1% | viability, T/C [22] 49.9% | viability, T/C [23] 40.7% | viability, T/C [24] 28.4% | viability, T/C [25] 94.2% | viability, T/C [26] 86.3% | viability, T/C [27] 93.2% | viability, T/C [28] 96% | viability, T/C [29] 113% | viability, T/C [30] 104% | viability, T/C [31] 103% | viability, T/C [32] 96.2% | viability, T/C [33] 108% | viability, T/C [34] 99.6% | viability, T/C [35] 101% | viability, T/C [36] 89.8% | viability, T/C [1] 99.8% | viability, T/C [2] 101% | viability, T/C [3] 99.2% | viability, T/C [4] 96.5% | viability, T/C [5] 99.2% | viability, T/C [6] 102% | viability, T/C [7] 105% | viability, T/C [8] 103% | viability, T/C [9] 102% | viability, T/C [10] 94.8% | viability, T/C [11] 99% | viability, T/C [12] 91.1% | viability, T/C [13] 81.9% | viability, T/C [14] 78.3% | viability, T/C [15] 93.5% | viability, T/C [16] 85.1% | viability, T/C [17] 95.7% | viability, T/C [18] 65.4%
0.333 µM: IC50 (second compound 0.00316 µM)
> 10 µM: IC50 (second compound 0.01 µM) | IC50 (second compound 0.0316 µM) | IC50 (second compound 0.1 µM) | IC50 (second compound 0.316 µM) | IC50 (second compound 1 µM)
